Experimental findings from the PolyMetriX glass transition set are described below.

With `*C(=O)Nc1ccc(C(c2ccc(NC(=O)c3ccc4c(c3)C(=O)N(c3c(C)cc(-c5cc(C)c(N6C(=O)c7ccc(*)cc7C6=O)c6ccccc56)c5ccccc35)C4=O)cc2)(C(F)(F)F)C(F)(F)F)cc1` (repeat unit), the glass transition temperature was determined as 250.00 °C.
In the case of `*C(=O)c1cc(C(=O)c2ccc3c(c2)C(=O)N(c2ccc(C(c4ccc(N5C(=O)c6ccc(*)cc6C5=O)cc4)(C(F)(F)F)C(F)(F)F)cc2)C3=O)cc(C(C)(C)C)c1` (repeat unit) it was 267.50 °C; in that of `*C(=O)c1cc2c(cc1Cl)C(=O)N(c1c(C)cc(C)c(N3C(=O)c4cc(*)c(Cl)cc4C3=O)c1C)C2=O` (repeat unit), 371.00 °C.
In the case of `*C(=O)c1ccc2c(c1)C(=O)N(c1cc(-c3nc4ccccc4oc3=O)cc(N3C(=O)c4ccc(*)cc4C3=O)c1)C2=O` (repeat unit) it was 95.00 °C; in that of `*C(=O)c1ccc2c(c1)C(=O)N(c1ccc(-c3ccc(N4C(=O)c5ccc(*)cc5C4=O)cc3)cc1)C2=O` (repeat unit), 382.00 °C; in that of `*C(=O)c1ccc2c(c1)C(=O)N(c1ccc(/C=C/c3ccc(N4C(=O)c5ccc(*)cc5C4=O)cc3)cc1)C2=O` (repeat unit), 303.00 °C.
In the case of `*C(=O)c1ccc2c(c1)C(=O)N(c1ccc(C(=O)c3ccccc3N3C(=O)c4ccc(*)cc4C3=O)cc1)C2=O` (repeat unit) it was 289.00 °C.
With `*C(=O)c1cccc(C(=O)c2ccc3c(c2)C(=O)N(c2ccc(C(c4ccc(N5C(=O)c6ccc(*)cc6C5=O)cc4)(C(F)(F)F)C(F)(F)F)cc2)C3=O)c1` (repeat unit), the glass transition temperature was found to be 262.50 °C.
In the case of `*CC/C(C)=C(/*)C` (repeat unit) it was 4.00 °C.
The same measure for `*CCN(Cc1ccccc1)C(=O)S*` (repeat unit): 32.00 °C; for `*Oc1c(Br)cc(C(C)(C)c2cc(Br)c(OC(*)=O)c(Br)c2)cc1Br` (repeat unit): 228.50 °C; for `*Oc1cc(Cl)c(C(C)(C)c2c(Cl)cc(OC(*)=O)cc2Cl)c(Cl)c1` (repeat unit): 240.00 °C.
As for `*Oc1ccc(SC(=O)Sc2ccc(*)cc2)cc1` (repeat unit), the glass transition temperature was 117.00 °C.
The same measure for `*Oc1ccc(SSc2ccc(*)cc2)cc1` (repeat unit): 76.80 °C; for `*SC1CCCC(*)C1` (repeat unit): -52.00 °C; for `*SC1CCCCC1*` (repeat unit): -43.00 °C.
The same measure for `*Sc1cc(C)c(*)cc1C` (repeat unit): 298.00 °C.
In the case of `*Sc1ccc(Nc2ccc(*)cc2)cc1` (repeat unit) it was 145.00 °C; in that of `*Sc1ccc(Sc2ccc(Sc3ccc4c(c3)C(=O)N(N3C(=O)c5cccc(*)c5C3=O)C4=O)cc2)cc1` (repeat unit), 242.00 °C; in that of `*Sc1cccc(Sc2ccc(Sc3ccc(*)cc3)cc2)c1` (repeat unit), 69.00 °C.
As to `*[Se]c1c(Cl)c(Cl)c(*)c(Cl)c1Cl` (repeat unit), the glass transition temperature came to 104.00 °C.
In the case of `*[Si](*)(C)CCC(F)(F)F` (repeat unit) it was -3.00 °C.
In the case of `*[Si](*)(CCCC)CCCCCC` (repeat unit) it was -40.00 °C.
In the case of `*[Si](*)(CCCCCC)c1ccccc1` (repeat unit) it was -70.00 °C.
In turn, `*c1c(C)cc(C)c(-n2c(=O)c3cc4c(=O)n(*)c(=O)c4cc3c2=O)c1C` (repeat unit) displayed a glass transition temperature of 399.8 °C.
The same measure for `*c1c(C)cc(C)c(N2C(=O)c3ccc(-c4ccc5c(c4)C(=O)N(*)C5=O)cc3C2=O)c1C` (repeat unit): 385.00 °C.
The same measure for `*c1c(C)cc(C)c(N2C(=O)c3ccc(Oc4ccc(Oc5ccc6c(c5)C(=O)N(*)C6=O)cc4)cc3C2=O)c1C` (repeat unit): 345.00 °C.
The same measure for `*c1c(C)cc(C)c(N2C(=O)c3ccc(Sc4ccc5c(c4)C(=O)N(*)C5=O)cc3C2=O)c1C` (repeat unit): 378.00 °C.
For `*c1cc(-c2ccc(C(=C3C=C(C(C)(C)C)C(=O)C(C(C)(C)C)=C3)c3cc(C(C)(C)C)c(O)c(C(C)(C)C)c3)cc2)c(*)s1` (repeat unit), the glass transition temperature is -12.60 °C.
The same measure for `*c1cc(-c2ccc(C(=C3C=C(C(C)(C)C)C(=O)C(C(C)(C)C)=C3)c3cc(C(C)(C)C)c(OC(C)=O)c(C(C)(C)C)c3)cc2)c(*)s1` (repeat unit): -4.30 °C.
The same measure for `*c1cc(-c2nc3ccccc3oc2=O)cc(-n2c(=O)c3cc4c(=O)n(*)c(=O)c4cc3c2=O)c1` (repeat unit): 130.00 °C; for `*c1cc(-c2sc(-c3cc(CCCCCCC)c(*)s3)cc2CCCCCCC)c2cccccc1-2` (repeat unit): 56.00 °C.
In the case of `*c1cc(-c2sc(-c3cc(CCCCCCCCCC)c(*)s3)cc2CCCCCCCCCC)c2cccccc1-2` (repeat unit) it was 22.50 °C; in that of `*c1cc(-c2sc(-c3cc(CCCCCCCCCCCCCC)c(*)s3)cc2CCCCCCCCCCCCCC)c2cccccc1-2` (repeat unit), -10.00 °C; in that of `*c1cc(/N=N/c2ccc(OC)cc2)cc(*)c1O` (repeat unit), 134.00 °C.
In the case of `*c1cc(Br)c(-c2c(Br)cc(N3C(=O)c4ccc(-c5ccc6c(c5)C(=O)N(*)C6=O)cc4C3=O)cc2C(=O)OCCCC)c(C(=O)OCCCC)c1` (repeat unit), the glass transition temperature was 196.00 °C.
In the case of `*c1cc(Br)c(-c2c(Br)cc(N3C(=O)c4ccc(-c5ccc6c(c5)C(=O)N(*)C6=O)cc4C3=O)cc2C(=O)OCCCCCCCC)c(C(=O)OCCCCCCCC)c1` (repeat unit) it was 135.50 °C; in that of `*c1cc(Br)c(-c2c(Br)cc(N3C(=O)c4ccc(-c5ccc6c(c5)C(=O)N(*)C6=O)cc4C3=O)cc2C(=O)OCCCCCCCCCC)c(C(=O)OCCCCCCCCCC)c1` (repeat unit), 116.00 °C.
The same measure for `*c1cc(C(=O)NCCCCCCCCCCCC)cc(N2C(=O)c3ccc(-c4ccc5c(c4)C(=O)N(*)C5=O)cc3C2=O)c1` (repeat unit): 243.10 °C; for `*c1cc(C(=O)OC)cc(N2C(=O)CC(C3Cc4ccccc4C4C(=O)N(*)C(=O)C43)C2=O)c1` (repeat unit): 258.00 °C.
In the case of `*c1ccc(Cc2ccc(N3C(=O)c4ccc(Sc5ccc6c(c5)C(=O)N(*)C6=O)cc4C3=O)cc2)cc1` (repeat unit) it was 265.00 °C; in that of `*c1ccc(N2C(=O)c3ccc(C(=O)c4ccc5c(c4)C(=O)N(c4ccc(-c6nc7cc(S(=O)(=O)c8ccc9nc(-c%10ccccc%10)c(*)nc9c8)ccc7nc6-c6ccccc6)cc4)C5=O)cc3C2=O)cc1` (repeat unit), 240.00 °C.
`*c1ccc(Oc2ccc(-c3ccc(Oc4ccc(N5C(=O)c6ccc(Oc7ccccc7Oc7ccc8c(c7)C(=O)N(*)C8=O)cc6C5=O)cc4)cc3)cc2)cc1` (repeat unit) displayed a glass transition temperature of 204.00 °C.
The same measure for `*c1ccc(Oc2ccc(C(c3ccc(Oc4ccc(N5C(=O)c6ccc(Oc7ccccc7Oc7ccc8c(c7)C(=O)N(*)C8=O)cc6C5=O)cc4C(F)(F)F)cc3)(C(F)(F)F)C(F)(F)F)cc2)c(C(F)(F)F)c1` (repeat unit): 191.00 °C; for `*c1ccc(Oc2ccc(N3C(=O)c4ccc(Sc5ccc6c(c5)C(=O)N(*)C6=O)cc4C3=O)cc2)cc1` (repeat unit): 258.00 °C.
Regarding `*c1ccc(Oc2ccc(Oc3ccc(N4C(=O)c5ccc(Oc6ccccc6Oc6ccc7c(c6)C(=O)N(*)C7=O)cc5C4=O)cc3C(F)(F)F)cc2)c(C(F)(F)F)c1` (repeat unit), the glass transition temperature turned out to be 197.00 °C.
With `*c1ccc(Oc2ccccc2Oc2ccc(N3C(=O)c4ccc(Oc5ccccc5Oc5ccc6c(c5)C(=O)N(*)C6=O)cc4C3=O)cc2)cc1` (repeat unit), the glass transition temperature was determined as 193.00 °C.
The same measure for `*c1ccc(Sc2ccc(Sc3ccc(N4C(=O)c5ccc(Sc6ccc(Sc7ccc(Sc8ccc9c(c8)C(=O)N(*)C9=O)cc7)cc6)cc5C4=O)cc3)cc2)cc1` (repeat unit): 190.8 °C; for `*c1ccc2c(c1)C(=O)N(c1c(C)c(C)c(N3C(=O)c4ccc(C(*)(C(F)(F)F)C(F)(F)F)cc4C3=O)c(C)c1C)C2=O` (repeat unit): 420.00 °C; for `*c1ccc2c(c1)C(=O)N(c1c(C)cc(C(c3ccccc3)(c3cc(C)c(N4C(=O)c5ccc(C(*)(C(F)(F)F)C(F)(F)F)cc5C4=O)c(C(C)C)c3)C(F)(F)F)cc1C(C)C)C2=O` (repeat unit): 289.00 °C.
In the case of `*c1ccc2c(c1)C(=O)N(c1c(C)cc(C)c(C(=O)c3cccc(N4C(=O)c5ccc(C(*)(C(F)(F)F)C(F)(F)F)cc5C4=O)c3)c1C)C2=O` (repeat unit) it was 280.00 °C; in that of `*c1ccc2c(c1)C(=O)N(c1c(C)cc(Cc3cc(C)c(N4C(=O)c5ccc(C(*)(C(F)(F)F)C(F)(F)F)cc5C4=O)c(C(C)C)c3)cc1C(C)C)C2=O` (repeat unit), 276.00 °C; in that of `*c1cccc(-c2cc(C(=O)Nc3ccc(OC(=O)c4cc(OCCCCCCCCCCCC)c(OCCCCCCCCCCCC)c(OCCCCCCCCCCCC)c4)cc3)cc(-c3cccc(N4C(=O)CC(C5C=C(C)C6C(=O)N(*)C(=O)C6C5)C4=O)c3)c2)c1` (repeat unit), 270.00 °C.
The same measure for `*c1cccc(-c2cc(C(=O)Nc3ccc(OC(=O)c4cc(OCCCCCCCCCCCC)c(OCCCCCCCCCCCC)c(OCCCCCCCCCCCC)c4)cc3)cc(-c3cccc(N4C(=O)c5ccc(S(=O)(=O)c6ccc7c(c6)C(=O)N(*)C7=O)cc5C4=O)c3)c2)c1` (repeat unit): 268.00 °C.
Compound `*c1cccc(C(=O)c2c(C)cc(C)c(N3C(=O)c4ccc(-c5ccc6c(c5)C(=O)N(*)C6=O)cc4C3=O)c2C)c1` (repeat unit) gave a glass transition temperature of 320.00 °C.
The same measure for `*c1cccc(N2C(=O)c3ccc(Oc4ccccc4Oc4ccc5c(c4)C(=O)N(*)C5=O)cc3C2=O)c1` (repeat unit): 224.00 °C.
